Consider four compounds from PMC8683085, “Serine ADP-ribosylation marks nucleosomes for ALC1-dependent chromatin remodeling” (eLife, 2021).

Where two headings read alike, the source gives them in different places.

In test [1] the target is T1, Af1521 macrodomain (fused to rabbit Fc tag) (Archaeoglobus fulgidus, UniProt O28751).
T1 construct: Af1521 macrodomain fused to rabbit Fc tag, MilliporeSigma; purchased MilliporeSigma
T1 sequence (O28751 1-192): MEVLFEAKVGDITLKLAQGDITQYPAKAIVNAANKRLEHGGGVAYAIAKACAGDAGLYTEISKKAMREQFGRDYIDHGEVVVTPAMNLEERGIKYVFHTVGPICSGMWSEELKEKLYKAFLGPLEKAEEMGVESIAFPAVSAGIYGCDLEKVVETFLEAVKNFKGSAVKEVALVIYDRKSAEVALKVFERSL
In words: Fluorescence polarization binding of fluorescein-labeled ADP-ribosylated histone peptides to the Af1521 macrodomain (pan-ADP-ribose detection reagent). The following applies: fluorescein-labeled peptide 2 nM, reagent titrated 0-2000 nM (4000 nM for mono-/di-ADPr), 25 mM Tris pH 7.5, 100 mM NaCl, 2 mM MgCl2, 0.001% Triton X100, 1 mM DTT, one-site specific binding fit, n = 3, read-out: Kd,app. On the technique in general: Polarisation of emitted light reports the rotation of a fluorescent probe.

For test [2], the target named is T2, ALC1 macrodomain (Homo sapiens, UniProt Q86WJ1).
T2 construct: A fragment encoding amino acids 636–878, corresponding to the macrodomain; 6xHis-SUMO (N, cleaved yes); made in house; host or cells: E. coli Rosetta2 (DE3)
T2 sequence (Q86WJ1 636-878): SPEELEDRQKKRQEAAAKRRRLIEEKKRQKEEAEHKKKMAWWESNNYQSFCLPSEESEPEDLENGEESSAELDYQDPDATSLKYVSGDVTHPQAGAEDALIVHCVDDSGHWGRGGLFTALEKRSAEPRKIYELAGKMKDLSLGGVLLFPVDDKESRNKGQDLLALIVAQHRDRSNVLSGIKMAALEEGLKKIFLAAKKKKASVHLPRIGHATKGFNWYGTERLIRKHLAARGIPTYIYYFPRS
Nature of the test: Fluorescence polarization binding of fluorescein-labeled ADP-ribosylated histone peptides to the ALC1 macrodomain. As for the experimental part:
Each fluorescently-labeled H2B (unmodified, mono-, di-, tri-, and tetra-ADP-ribose at H2BS6) and H3 peptide (unmodified, mono-, di-, tri-, tetra-, or penta-ADP-ribose at H3S10) was diluted to 2 nM in a buffer containing 25 mM Tris, pH 7.5, 100 mM NaCl, 2 mM MgCl2, 0.001% Triton X100, and 1 mM DTT. Note, H3 elongates more efficiently than H2B and so the penta-ADP-ribosylated species could be isolated for this peptide. Peptide concentration was calculated via fluorescein extinction coefficient (A480 = 70,000). To analyze peptide:pan-ADP-ribose detection reagent (Af1521 macrodomain fused to rabbit Fc tag, MilliporeSigma) interaction, the pan-ADP-ribose detection reagent was titrated into each peptide to final concentrations ranging from 0 to 2000 nM (points represent 3 x dilutions starting from 2000 nM; a higher concentration of 4000 nM was also included for mono- and di-ADP-ribosylated peptides). To analyze peptide:ALC1-macrodomain interaction, the ALC1-macrodomain was titrated into each peptide to final concentrations ranging from 0 to 3000 nM (points represent 3 x dilutions starting from 3000 nM). Reactions were added to a black, flat-bottom 96-well plate (Corning Costar) and analyzed on a BioTek Cytation five imager equipped with a Green FP filter set (excitation: 485 nm, emission: 528 nm). […]

In the next test the target is T3, ALC1 (Homo sapiens, UniProt Q86WJ1).
T3 sequence (Q86WJ1 1-897): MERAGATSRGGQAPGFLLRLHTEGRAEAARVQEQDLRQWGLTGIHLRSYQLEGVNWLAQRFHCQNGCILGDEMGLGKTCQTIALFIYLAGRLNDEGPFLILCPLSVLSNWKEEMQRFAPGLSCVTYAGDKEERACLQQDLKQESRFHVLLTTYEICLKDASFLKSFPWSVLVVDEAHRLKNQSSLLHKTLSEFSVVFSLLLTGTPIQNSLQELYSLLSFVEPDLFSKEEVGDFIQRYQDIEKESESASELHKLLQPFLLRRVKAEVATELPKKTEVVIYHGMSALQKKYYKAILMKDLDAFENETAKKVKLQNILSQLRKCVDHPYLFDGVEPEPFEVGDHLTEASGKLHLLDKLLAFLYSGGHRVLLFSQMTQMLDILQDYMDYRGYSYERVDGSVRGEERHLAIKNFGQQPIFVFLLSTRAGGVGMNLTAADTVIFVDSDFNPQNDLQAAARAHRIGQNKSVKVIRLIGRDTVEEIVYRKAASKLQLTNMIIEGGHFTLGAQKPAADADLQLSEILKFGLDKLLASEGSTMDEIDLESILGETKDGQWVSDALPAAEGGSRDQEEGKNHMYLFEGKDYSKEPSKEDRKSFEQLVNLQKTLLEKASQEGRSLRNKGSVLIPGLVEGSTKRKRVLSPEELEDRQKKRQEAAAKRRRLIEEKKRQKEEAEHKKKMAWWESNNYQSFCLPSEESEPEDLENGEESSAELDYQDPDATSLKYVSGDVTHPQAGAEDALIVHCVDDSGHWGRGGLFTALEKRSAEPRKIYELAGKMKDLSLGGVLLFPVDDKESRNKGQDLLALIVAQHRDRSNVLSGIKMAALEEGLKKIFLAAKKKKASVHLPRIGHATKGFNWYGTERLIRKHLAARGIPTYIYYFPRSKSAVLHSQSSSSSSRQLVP
Nature of the test: Restriction enzyme accessibility (REA) nucleosome remodeling assay, single substrate, recombinant ALC1. The following applies: for k, ALC1 remodeling rate constant on unmodified nucleosome in the presence of free ADP-ribosylated peptide: REA assay, 4 nM ALC1, unmodified nucleosome 20 nM, peptide 40 nM, 2 mM ATP, one-phase exponential decay fit, n = 3. The class given is biochemical. As for the experimental part:
REA assays and analysis were performed as previously described ([Dann et al., 2017]) with several modifications. Nucleosome remodeling reactions (25 μL) were carried out in REA Buffer (12 mM HEPES, pH 7.9, 4 mM Tris, pH 7.5, 60 mM KCl, 10 mM MgCl2, 10% glycerol, and 0.02% NP-40) including 1 μL of PstI (NEB, at 100,000 U/mL), 2 mM ATP (Sigma-Aldrich), and final concentrations of 4 nM ALC1 or 10 nM CHD4 and 20 nM of the desired nucleosome substrate. The reaction was incubated for 5 min prior to addition of chromatin remodeler to ensure that any trace amount of free DNA from the nucleosome assembly was digested prior to initiating the reaction. This is required to ensure that free DNA digestion can be assigned as background activity and is not interpreted as enzyme-dependent nucleosome remodeling in data processing. To each reaction, 37.5 μL of Quench Buffer (20 mM Tris, pH 7.5, 70 mM EDTA, pH 8, 2% SDS, 10% glycerol) was added at time points of 0, 3, 6, 18, 36, and 60 min. Samples were then deproteinized with 30 U/mL proteinase K (NEB) for 1 h at 37 °C. DNA purification was performed using the Qiagen PCR purification kit following manufacturer’s protocols. Purple Gel Loading Dye (6 X, NEB) was added to a final concentration of 1 X to the quenched reaction and samples were loaded onto a 5% TBE gel and run for 60 min at 150 volts in 0.5 X TBE Buffer (BioRad). Gels were stained with ethidium bromide and imaged on a BioRad ChemiDoc. Gel densitometry measurements were performed using ImageJ. For each lane, the total densitometry signal was calculated by adding the densitometry values corresponding to the PstI-digested species (lower band) and undigested species (upper band). The fraction unremodeled value for each lane was then calculated using the following formula: fraction unremodeled= signalundigested/signalundigested+ signaldigested […]

For test [3], the target named is T2, ALC1 macrodomain. The note with it: free ADP-ribose molecules; ref Singh et al., 2017; cited from earlier work. The text has this: We therefore chose to pursue ALC1 for our initial ADP-ribosylated histone peptide interaction studies. Nine fluorescently-labeled, ADP-ribosylated histone peptides (H2BS6ADPr1-4 and H3S10ADPr ...

On to `CC(C)C[C@H](NC(=O)[C@H](CCC(N)=O)NC(=O)[C@H](CCCCN)NC(=O)[C@H](CCCNC(=N)N)NC(=O)[C@@H]1CCCN1C(=O)[C@H](C)NC(=O)[C@H](CCCCN)NC(=O)CNC(=O)CNC(=O)[C@@H](NC(=O)[C@H](CO[C@H]1O[C@H](COP(=O)(O)OP(=O)(O)OC[C@H]2O[C@@H](n3cnc4c(N)ncnc43)[C@H](O[C@H]3O[C@H](COP(=O)(O)OP(=O)(O)OC[C@H]4O[C@@H](n5cnc6c(N)ncnc65)[C@H](O[C@H]5O[C@H](COP(=O)(O)OP(=O)(O)OC[C@H]6O[C@@H](n7cnc8c(N)ncnc87)[C@H](O[C@H]7O[C@H](COP(=O)(O)OP(=O)(O)OC[C@H]8O[C@@H](n9cnc%10c(N)ncnc%109)[C@H](O[C@H]9O[C@H](COP(=O)(O)OP(=O)(O)OC[C@H]%10O[C@@H](n%11cnc%12c(N)ncnc%12%11)[C@H](O)[C@@H]%10O)[C@@H](O)[C@H]9O)[C@@H]8O)[C@@H](O)[C@H]7O)[C@@H]6O)[C@@H](O)[C@H]5O)[C@@H]4O)[C@@H](O)[C@H]3O)[C@@H]2O)[C@@H](O)[C@H]1O)NC(=O)[C@H](CCCCN)NC(=O)[C@H](CCCNC(=N)N)NC(=O)[C@H](C)NC(=O)[C@@H](NC(=O)[C@H](CCC(N)=O)NC(=O)[C@H](CCCCN)NC(=O)[C@@H](NC(=O)[C@H](CCCNC(=N)N)NC(=O)[C@H](C)NC(=O)c1ccc2c(c1)C(=O)OC21c2ccc(O)cc2Oc2cc(O)ccc21)[C@@H](C)O)[C@@H](C)O)[C@@H](C)O)C(N)=O` [H3S10ADPr5 peptide], for which the Kd in test [1] came to 42.5 nM; on ALC1 macrodomain [2] it was 27.9 nM.
Consider “H2BS6ADPr4 peptide: H2B (1-16) peptide with tetra-ADP-ribose at S6; fluorescein-labeled in FP assays ({5(6)‑carboxyfluorescein}-PEPAKS(tetra‑ADP‑ribose)APAPKKGSKK-NH2)”, for which the “k, ALC1 remodeling rate constant on unmodified nucleosome in the presence of free ADP-ribosylated peptide” value with ALC1 turned out to be 1.886e-05 min⁻¹.
On to “H3S10ADPr4 peptide: H3 (1–20) peptide with tetra-ADP-ribose at S10; fluorescein-labeled in FP assays”, for which, in the test with ALC1 (ALC1, unmodified nucleosome 20 nM, peptide 10, 40 or 200 nM), the “stimulation of ALC1-dependent remodeling of unmodified nucleosomes by the freely diffusing peptide” value is “unable to appreciably stimulate”. Also, in the test with ALC1, the “k, ALC1 remodeling rate constant on unmodified nucleosome in the presence of free ADP-ribosylated peptide” value is 8.323e-05 min⁻¹.
As to tri-ADP-ribose, at ALC1 macrodomain [3], the Kd was approximately 10 nM.
